Assays:
[1] = system: anesthesia/surgery-induced cognitive impairment; test: Fear Conditioning Test (FCT); assay type: in vivo, mice; conditions: 52.8 mg/kg IP; Tone test 48 hours, Context test 7 days after anesthesia/surgery; FIG. 6A-6D
Text: (§1) 9-month-old C57BL/J6 female mice were adaptive in lab for 3 days. The mice were randomly assigned to the anesthesia/surgery group or control group by weight. […] Specifically, the inventors anesthetized each of the mice using 1.4% isoflurane in 100% oxygen in a transparent acrylic chamber. Fifteen minutes after the induction, the inventors moved the mouse out of the chamber. Isoflurane anesthesia was maintained via a cone device, and one 16-gauge needle was inserted into the cone near the nose of the mouse to monitor the concentration of isoflurane. The inventors made a longitudinal midline incision from the xiphoid to the 0.5 centimeter proximal pubic symphysis on the skin, abdominal muscles and peritoneum. The inventors then sutured the incision layer by layer with 5-0 Vicryl thread.
(§2) The inventors applied EMLA cream (2.5% lidocaine and 2.5% prilocaine) to the incision site at the end of the procedure, and then every eight hours until the euthanasia of the mice, to treat the pain associated with the incision. […]
The first tone test was performed at 90 minutes after the end of the pairing. […] The “freezing behavior” was analyzed by Any-Maze (freezing on threshold: 10; freezing off threshold: 20; minimum freezing duration: one second) (Stoelting). The percentage of freezing time was calculated by dividing the actual freezing time with the observed time (180 seconds).

[2] = system: stimulated human peripheral blood mononuclear cells; conditions: cited from earlier work
[3] = system: anesthesia/surgery-induced cognitive impairment; test: Barnes Maze Test; assay type: in vivo, mice; conditions: 26.4 mg/kg and 13.2 mg/kg IP; one week after anesthesia/surgery; FIG. 7A-7J
Text: as §1, §2
One week after anesthesia/surgery, animals were subjected to Barnes maze to test their spatial learning and memory. […] The latency and number of errors to find the target box during each trial were recorded with the assistance of ANY-Maze video tracking system.

calcineurin = conditions: at concentrations up to 2 μM; cited from earlier work
PSD-95 = test: Western blot of brain PSD-95 after anesthesia/surgery; assay type: in vivo, mice; conditions: 26.4 mg/kg IP
Text: as §1, with “The inventors made a longitudinal midline incision from the xiphoid to the 0.5 centimeter proximal pubic symphysis on the skin, abdominal muscles and peritoneum. The inventors then sutured the incision layer by layer with 5-0 Vicryl thread.” left out
Brain Tissue Harvest, Lysis and Protein Quantification. […] Levels of interleukin-6 (IL-6) and postsynaptic density (PSD)-95 in the cortex and hippocampus of mice will be assessed. […] The lysates will be collected, centrifuged at 10,000 rpm for 5 minutes at 4° C., and quantified for total proteins by bicinchoninic acid (BCA) protein assay kit (Pierce, Iselin, NJ). […]
Western Blot Analysis. […] Western blot quantification was performed as described. Briefly, signal intensity was analyzed using a Bio-Rad (Hercules, CA) image program (Quantity One). The inventors quantified Western blots in two steps, first, the inventors used β-Actin levels to normalize (e.g., determine the ratio of PSD-95 to β-Actin amount) protein levels and control for loading differences in the total protein amount. […]

cytochrome P450 3A4 = conditions: cited from earlier work
synaptophysin = test: Western blot of brain synaptophysin after anesthesia/surgery; assay type: in vivo, mice; conditions: 26.4 mg/kg IP
stimulated Jurkat cells = conditions: cited from earlier work
[4] = multiple animal species, cited from earlier work
ROS = test: brain ROS levels after anesthesia/surgery; design: species or system mice; conditions: mouse, in vivo
P-glycoprotein = P-glycoprotein (Homo sapiens, UniProt P08183); conditions: cited from earlier work
Chain of P-glycoprotein (P08183 whole entry): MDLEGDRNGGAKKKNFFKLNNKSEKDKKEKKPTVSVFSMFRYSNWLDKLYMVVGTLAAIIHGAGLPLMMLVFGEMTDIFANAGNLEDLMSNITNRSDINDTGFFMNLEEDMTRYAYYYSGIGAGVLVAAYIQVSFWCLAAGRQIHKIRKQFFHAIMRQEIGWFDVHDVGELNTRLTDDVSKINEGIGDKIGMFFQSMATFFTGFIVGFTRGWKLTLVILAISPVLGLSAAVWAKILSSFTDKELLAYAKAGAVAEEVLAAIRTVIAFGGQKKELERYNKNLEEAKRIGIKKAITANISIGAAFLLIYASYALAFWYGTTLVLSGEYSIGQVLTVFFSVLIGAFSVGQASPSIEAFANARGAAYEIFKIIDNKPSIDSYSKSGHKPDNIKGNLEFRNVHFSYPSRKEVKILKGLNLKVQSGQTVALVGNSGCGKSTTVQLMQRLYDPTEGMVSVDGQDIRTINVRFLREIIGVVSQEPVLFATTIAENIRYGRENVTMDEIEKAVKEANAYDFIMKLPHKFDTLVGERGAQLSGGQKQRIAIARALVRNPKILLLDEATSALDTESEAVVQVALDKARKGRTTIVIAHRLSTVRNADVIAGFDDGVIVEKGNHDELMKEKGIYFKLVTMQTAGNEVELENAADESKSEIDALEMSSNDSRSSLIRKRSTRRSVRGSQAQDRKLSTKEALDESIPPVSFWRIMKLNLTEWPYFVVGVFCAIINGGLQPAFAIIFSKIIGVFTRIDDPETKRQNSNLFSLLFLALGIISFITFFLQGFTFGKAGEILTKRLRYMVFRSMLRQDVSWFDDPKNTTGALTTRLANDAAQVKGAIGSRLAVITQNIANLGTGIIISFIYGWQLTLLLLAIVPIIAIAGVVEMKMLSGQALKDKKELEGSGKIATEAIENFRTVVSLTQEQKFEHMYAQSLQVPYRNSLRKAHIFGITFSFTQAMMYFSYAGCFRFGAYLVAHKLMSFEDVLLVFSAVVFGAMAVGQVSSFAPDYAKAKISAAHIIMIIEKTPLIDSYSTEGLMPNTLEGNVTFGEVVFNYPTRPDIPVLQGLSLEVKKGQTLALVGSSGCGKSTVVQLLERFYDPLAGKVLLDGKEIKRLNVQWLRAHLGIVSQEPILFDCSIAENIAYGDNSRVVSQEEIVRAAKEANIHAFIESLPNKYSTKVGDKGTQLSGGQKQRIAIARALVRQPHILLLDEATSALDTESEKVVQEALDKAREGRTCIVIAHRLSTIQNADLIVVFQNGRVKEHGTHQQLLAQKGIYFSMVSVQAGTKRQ

hepatitis C virus (HCV) [5] = conditions: two-drug combination, in vitro; cited from earlier work
ATP = test: brain ATP measurement after anesthesia/surgery; assay type: in vivo, mice; conditions: 26.4 mg/kg IP
Text: as §1, with “thread. […]” for “thread.”
ATP Measurement. The levels of ATP in the cortex of mice (N=6 in each group) were determined by the ATP Colorimetric/Fluorometric Assay Kit following the protocol provided by the manufacturer (Abcam, Cambridge, MA). […] The amount of fluorescence will be measured and the levels of ATP in the experimental samples will be calculated from the standard curve made from samples containing a known amount of ATP.

cytochrome P450 1A2 = conditions: cited from earlier work
cyclophilin A = cyclophilin A (Homo sapiens, UniProt P62937); conditions: cited from earlier work
Chain of cyclophilin A (P62937 whole entry, species assumed): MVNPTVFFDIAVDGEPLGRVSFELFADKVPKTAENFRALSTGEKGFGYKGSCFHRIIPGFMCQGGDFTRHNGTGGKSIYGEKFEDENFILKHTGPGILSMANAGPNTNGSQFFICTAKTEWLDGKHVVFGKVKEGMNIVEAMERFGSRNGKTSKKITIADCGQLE

IL-6 = test: brain IL-6 levels after anesthesia/surgery; design: species or system mice; conditions: mouse, in vivo
Protocol: Brain Tissue Harvest, Lysis and Protein Quantification. Different mice will be used for the harvest of brain tissue. Levels of interleukin-6 (IL-6) and postsynaptic density (PSD)-95 in the cortex and hippocampus of mice will be assessed. The brain tissues (cortex and hippocampus) of the mice will be harvested immediately at the end of the anesthesia/surgery by decapitation. The harvested brain tissues will be homogenized on ice using immunoprecipitation buffer (10 mM Tris-HCl, pH 7.4, 150 mM NaCl, 2 mM EDTA, 0.5% Nonidet P-40) plus protease inhibitors ([…]). The lysates will be collected, centrifuged at 10,000 rpm for 5 minutes at 4° C., and quantified for total proteins by bicinchoninic acid (BCA) protein assay kit (Pierce, Iselin, NJ). The brain tissues will then be subjected to Western Blot.

hepatitis C virus (HCV) [6] = conditions: in vitro; cited from earlier work
cytochrome P450 2B6 = conditions: cited from earlier work

Compound: C/C=C/C[C@@H](C)[C@@H](O)[C@H]1C(=O)N[C@@H](CC)C(=O)N(C)[C@H](SCCN(C)C)C(=O)N(C)[C@@H](CC(C)(C)O)C(=O)N[C@@H](C(C)C)C(=O)N(C)[C@@H](CC(C)C)C(=O)N[C@@H](C)C(=O)N[C@H](C)C(=O)N(C)[C@@H](CC(C)C)C(=O)N(C)[C@@H](CC(C)C)C(=O)N(C)[C@@H](C(C)C)C(=O)N1C [WS-635, (3S,6S,9S,12R,15S,18S,21S,24S,27R,30S,33S)-27-((2-(dimethylamino)ethyl)thio)-30-ethyl-33-((1R,2R,E)-1-hydroxy-2-methylhex-4-en-1-yl)-24-(2-hydroxy-2-methylpropyl)-6,9,18-tri isobutyl-3,21-diisopropyl-1,4,7,10,12,15,19,25,28-nonamethyl-1,4,7,10,13,16,19,22,25,28,31-undecaazacyclotritriacontan-2,5,8,11,14,17,20,23,26,29,32-undecaone]
- anesthesia/surgery-induced reduction in freezing time [1]: mitigated
- inhibition of interleukin-2 secretion compared with cyclosporine [2]: weaker inhibitor
- anesthesia/surgery-induced decrease in escape speed [3]: mitigated
- anesthesia/surgery-induced increase in escape latency [3]: mitigated
- inhibition of calcineurin phosphatase activity (calcineurin): no detectable inhibition
- anesthesia/surgery-induced decrease of PSD-95 level in cortex (PSD-95; cortex, FIG. 3): mitigate
- anesthesia/surgery-induced decrease of PSD-95 level in hippocampus (PSD-95; hippocampus, FIG. 4): mitigate
- induction of cytochrome P450 3A4 (cytochrome P450 3A4): did not induce
- anesthesia/surgery-induced decrease of synaptophysin level in cortex (synaptophysin; cortex, FIG. 3): mitigate
- anesthesia/surgery-induced decrease of synaptophysin level in hippocampus (synaptophysin; hippocampus, FIG. 4): mitigate
- inhibition of interleukin-2 secretion compared with cyclosporine (stimulated Jurkat cells): weaker inhibitor
- oral bioavailability [4]: orally bioavailable
- blood and liver concentrations of parent drug versus 50% effective dose in replicon assay ([4]; oral): exceeded the 50% effective dose
- anesthesia/surgery-induced changes in brain levels of ROS (ROS): attenuate
- inhibition of P-glycoprotein (P-glycoprotein): weak inhibitor
- substrate for P-glycoprotein (P-glycoprotein): poor substrate
- antiviral activity in combination with alpha interferon 2b (hepatitis C virus (HCV) [5]): synergistic antiviral activity
- antiviral activity in combination with ribavirin (hepatitis C virus (HCV) [5]): additive antiviral activity
- anesthesia/surgery-induced decrease of ATP level in cortex (ATP; cortex, FIG. 5A): mitigate
- anesthesia/surgery-induced decrease of ATP level in hippocampus (ATP; hippocampus, FIG. 5B): mitigate
- induction of cytochrome P450 1A2 (cytochrome P450 1A2): did not induce
- inhibition of peptidyl prolyl isomerase activity of cyclophilin A (cyclophilin A): nanomolar concentrations
- anesthesia/surgery-induced changes in brain levels of IL-6 (IL-6): attenuate
- suppression of HCV replication (hepatitis C virus (HCV) [6]): potent suppression
- induction of cytochrome P450 2B6 (cytochrome P450 2B6): did not induce
